Results: publication PMC12454493, “Insight on novel sulfamoylphenyl pyrazole derivatives as anticancer carbonic anhydrase inhibitors” (Molecular Diversity, 2024)
“And” between values parts separate entries of the source, which are not always exact repeats. Equal entries are not always repeated.

Key:
M14 = test: NCI-60 one-dose SRB screen (Melanoma); format: cell-based; conditions: Homo sapiens, single dose 10 µM, 48 h, read-out: Growth inhibition percent (GI %)
Protocol: (§1) The National Cancer Institute (NCI) Developmental Therapeutic Program (www.dtp.nci.nih.gov) selected the 20 novel synthesized compounds 4a-e, 5a-e, 6a-c, 9a-e, 10 and 11 to test for their anticancer activity at a single dose of 10 µM using SRB assay. […] Supplementary Data S3; Table S1 presents the detailed screening results of the most promising compounds. The preliminary screening’s detailed results for the remaining compounds are elucidated in the (Supplementary Data S3; Table S2).
(§2) The guidelines of the Drug Evaluation Branch’s protocol at the NCI in Bethesda served as the basis for the in vitro anticancer screening assays. at one dose 10 µM against a panel of 60 cancer cell lines. The human tumor cell lines used belonged to nine panels: leukemia, melanoma, lung, colon, CNS, ovarian, renal, prostate and breast cancers using the sulforhodamine B (SRB) assay in a 48 h drug exposure protocol.

MALME-3M = test: NCI-60 one-dose SRB screen (Melanoma); format: cell-based; conditions: Homo sapiens, single dose 10 µM, 48 h, read-out: Growth inhibition percent (GI %)
Protocol: as §1, §2

MDA-MB-435 = test: NCI-60 one-dose SRB screen (Melanoma); format: cell-based; conditions: Homo sapiens, single dose 10 µM, 48 h, read-out: Growth inhibition percent (GI %)
Protocol: as §1, §2

SK-MEL-28 = test: NCI-60 one-dose SRB screen (Melanoma); format: cell-based; conditions: Homo sapiens, single dose 10 µM, 48 h, read-out: Growth inhibition percent (GI %)
Protocol: as §1, §2

SK-MEL-5 = test: NCI-60 one-dose SRB screen (Melanoma); format: cell-based; conditions: Homo sapiens, single dose 10 µM, 48 h, read-out: Growth inhibition percent (GI %)
Protocol: as §1, §2

UACC-257 = test: NCI-60 one-dose SRB screen (Melanoma); format: cell-based; conditions: Homo sapiens, single dose 10 µM, 48 h, read-out: Growth inhibition percent (GI %)
Protocol: as §1, §2

UACC-62 = test: NCI-60 one-dose SRB screen (Melanoma); format: cell-based; conditions: Homo sapiens, single dose 10 µM, 48 h, read-out: Growth inhibition percent (GI %)
Protocol: as §1, §2

IGROV1 = test: NCI-60 one-dose SRB screen (Ovarian cancer); format: cell-based; conditions: Homo sapiens, IGROV-1, single dose 10 µM, 48 h, read-out: Growth inhibition percent (GI %)
Protocol: as §1, §2

OVCAR-3 = test: NCI-60 one-dose SRB screen (Ovarian cancer); format: cell-based; conditions: Homo sapiens, single dose 10 µM, 48 h, read-out: Growth inhibition percent (GI %)
Protocol: as §1, §2

OVCAR-4 = test: NCI-60 one-dose SRB screen (Ovarian cancer); format: cell-based; conditions: Homo sapiens, single dose 10 µM, 48 h, read-out: Growth inhibition percent (GI %)
Protocol: as §1, §2

OVCAR-5 = test: NCI-60 one-dose SRB screen (Ovarian cancer); format: cell-based; conditions: Homo sapiens, single dose 10 µM, 48 h, read-out: Growth inhibition percent (GI %)
Protocol: as §1, §2

OVCAR-8 = test: NCI-60 one-dose SRB screen (Ovarian cancer); format: cell-based; conditions: Homo sapiens, single dose 10 µM, 48 h, read-out: Growth inhibition percent (GI %)
Protocol: as §1, §2

SK-OV-3 = test: NCI-60 one-dose SRB screen (Ovarian cancer); format: cell-based; conditions: Homo sapiens, single dose 10 µM, 48 h, read-out: Growth inhibition percent (GI %)
Protocol: as §1, §2

786-0 = test: NCI-60 one-dose SRB screen (Renal Cancer); format: cell-based; conditions: Homo sapiens, single dose 10 µM, 48 h, read-out: Growth inhibition percent (GI %)
Protocol: as §1, §2

A498 = test: NCI-60 one-dose SRB screen (Renal Cancer); format: cell-based; conditions: Homo sapiens, single dose 10 µM, 48 h, read-out: Growth inhibition percent (GI %)
Protocol: as §1, §2

ACHN = test: NCI-60 one-dose SRB screen (Renal Cancer); format: cell-based; conditions: Homo sapiens, single dose 10 µM, 48 h, read-out: Growth inhibition percent (GI %)
Protocol: as §1, §2

CAKI-1 = test: NCI-60 one-dose SRB screen (Renal Cancer); format: cell-based; conditions: Homo sapiens, single dose 10 µM, 48 h, read-out: Growth inhibition percent (GI %)
Protocol: as §1, §2

RXF 393 = test: NCI-60 one-dose SRB screen (Renal Cancer); format: cell-based; conditions: Homo sapiens, single dose 10 µM, 48 h, read-out: Growth inhibition percent (GI %)
Protocol: as §1, §2

SN12C = test: NCI-60 one-dose SRB screen (Renal Cancer); format: cell-based; conditions: Homo sapiens, single dose 10 µM, 48 h, read-out: Growth inhibition percent (GI %)
Protocol: as §1, §2

TK-10 = test: NCI-60 one-dose SRB screen (Renal Cancer); format: cell-based; conditions: Homo sapiens, single dose 10 µM, 48 h, read-out: Growth inhibition percent (GI %)
Protocol: as §1, §2

UO-31 = test: NCI-60 one-dose SRB screen (Renal Cancer); format: cell-based; conditions: Homo sapiens, single dose 10 µM, 48 h, read-out: Growth inhibition percent (GI %)
Protocol: as §1, §2

DU-145 = test: NCI-60 one-dose SRB screen (Prostate Cancer); format: cell-based; conditions: Homo sapiens, single dose 10 µM, 48 h, read-out: Growth inhibition percent (GI %)
Protocol: as §1, §2

PC-3 = test: NCI-60 one-dose SRB screen (Prostate Cancer); format: cell-based; conditions: Homo sapiens, single dose 10 µM, 48 h, read-out: Growth inhibition percent (GI %)
Protocol: as §1, §2

BT-549 = test: NCI-60 one-dose SRB screen (Breast Cancer); format: cell-based; conditions: Homo sapiens, single dose 10 µM, 48 h, read-out: Growth inhibition percent (GI %)
Protocol: as §1, §2

HS 578T = test: NCI-60 one-dose SRB screen (Breast Cancer); format: cell-based; conditions: Homo sapiens, single dose 10 µM, 48 h, read-out: Growth inhibition percent (GI %)
Protocol: as §1, §2

MCF-7 = test: NCI-60 one-dose SRB screen (Breast Cancer); format: cell-based; conditions: Homo sapiens, MCF7, single dose 10 µM, 48 h, read-out: Growth inhibition percent (GI %)
Protocol: as §1, §2

MDA-MB-231/ATCC = test: NCI-60 one-dose SRB screen (Breast Cancer); format: cell-based; conditions: Homo sapiens, single dose 10 µM, 48 h, read-out: Growth inhibition percent (GI %)
Protocol: as §1, §2

MDA-MB-468 = test: NCI-60 one-dose SRB screen (Breast Cancer); format: cell-based; conditions: Homo sapiens, single dose 10 µM, 48 h, read-out: Growth inhibition percent (GI %)
Protocol: as §1, §2

T-47D = test: NCI-60 one-dose SRB screen (Breast Cancer); format: cell-based; conditions: Homo sapiens, T47D, single dose 10 µM, 48 h, read-out: Growth inhibition percent (GI %)
Protocol: as §1, §2

hCA XII = hCA XII (Homo sapiens, UniProt O43570); test: CA inhibitory activity, spectrophotometric p-NPA assay; format: biochemical; conditions: p-NPA substrate, pH 7.5, 25 °C, triplicate; read-out: IC50 (µM) ± SD hCA XII
hCA XII, sequence (O43570 25-354): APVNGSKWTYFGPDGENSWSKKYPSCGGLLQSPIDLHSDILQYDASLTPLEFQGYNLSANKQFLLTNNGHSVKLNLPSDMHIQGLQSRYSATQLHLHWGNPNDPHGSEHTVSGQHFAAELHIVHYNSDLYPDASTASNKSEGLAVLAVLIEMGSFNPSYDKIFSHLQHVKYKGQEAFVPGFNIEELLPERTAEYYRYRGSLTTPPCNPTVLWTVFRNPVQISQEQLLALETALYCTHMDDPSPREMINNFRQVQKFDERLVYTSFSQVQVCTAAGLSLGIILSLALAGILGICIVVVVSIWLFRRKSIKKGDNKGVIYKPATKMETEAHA

NS(=O)(=O)c1ccc(NC(=O)COC(=O)c2cn(-c3ccc(S(N)(=O)=O)cc3)nc2-c2ccccc2)cc1 [Compound 4a, 2-Oxo-2-[(4-sulfamoylphenyl)amino] ethyl 3-phenyl-1-(4-sulfamoylphenyl)-1H-pyrazole-4-carboxylate]
8.55%: inhibition at 10 µM (MALME-3M)
31.2%: inhibition at 10 µM (786-0)
< 5%: inhibition at 10 µM (MDA-MB-435) | inhibition at 10 µM (SK-MEL-28) | inhibition at 10 µM (SK-MEL-5) | inhibition at 10 µM (UACC-257) | inhibition at 10 µM (UACC-62) | inhibition at 10 µM (IGROV1) | inhibition at 10 µM (OVCAR-3) | inhibition at 10 µM (OVCAR-4) | inhibition at 10 µM (OVCAR-5) | inhibition at 10 µM (OVCAR-8) | inhibition at 10 µM (SK-OV-3) | inhibition at 10 µM (A498) | inhibition at 10 µM (ACHN) | inhibition at 10 µM (RXF 393) | inhibition at 10 µM (SN12C) | inhibition at 10 µM (TK-10) | inhibition at 10 µM (DU-145) | inhibition at 10 µM (PC-3) | inhibition at 10 µM (HS 578T) | inhibition at 10 µM (MCF-7) | inhibition at 10 µM (MDA-MB-468) | inhibition at 10 µM (T-47D)
10.5%: inhibition at 10 µM (MDA-MB-231/ATCC)
15%: inhibition at 10 µM (UO-31)
23.2%: inhibition at 10 µM (M14)
43.4%: inhibition at 10 µM (BT-549)
0.22 µM and 0.226 µM: IC50 (hCA XII)
11.6%: inhibition at 10 µM (CAKI-1)
